Details in all cases: for Kd: ARS displacement, 0.1M phosphate buffer, pH 7.4, 25° C.
A short description of experiment [1]: Alizarin Red S (ARS) displacement assay, binding to lactate. On the procedure:
(§1) The association constant for the binding event between Alizarin Red S (ARS) and the compounds of each of examples 1-24 was determined using standard methods in the art. Triplicate titrations of 10^-5 M ARS in 0.1M phosphate buffer, pH 7.4, were performed in a 96-well plate against serial dilutions of example compounds, ranging in concentration from 0-0.1M at 25° C. The example compound-ARS solution was incubated for 5-45 minutes at 25° C., and absorbance intensity was measured using excitation wavelength 468 nm and emission wavelength 585 nm. Changes in intensity were plotted against the concentration of the example compound, and the intensity data was fitted to yield an association constant for ARS binding.
(§2) The association constant for the binding between a target sugar compound (e.g., glucose) and a boronate compound was determined via the displacement of ARS bound to the example compounds. Triplicate wells of 10^-5 M ARS and 0.1M example compounds in 0.1M phosphate buffer, pH 7.4, were titrated in a 96-well plate against serial dilutions of the target sugar compound, ranging in concentration from 0-2.0 M at 25° C. The boronate-ARS-carbohydrate solution was incubated for 30-60 minutes at 25° C. and the intensity of each well was measured in a plate reader at excitation wavelength 468 nm and emission wavelength 585 nm. Changes in intensity were plotted against concentration of the target sugar compound, and the data was fitted to a one-site competition equation:
(§3) [formula] to yield an association constant for the boronate compound-target sugar compound binding event.

The nature of experiment [2]: Alizarin Red S (ARS) displacement assay, binding to fructose. As to the method:
as §1, §2, §3

Experiment [3] can be described thus: Alizarin Red S (ARS) displacement assay, binding to glucose. As to the method:
as §1, §2, §3

Where [4] appears, read: Example 7 (heterobifunctional, boroxole) compared to Example 5.

The values that follow come from patent US12709622B2, “Conjugates for selective responsiveness to vicinal diols” (PROTOMER TECHNOLOGIES, INC., priority 2020, dated 2026).

Turning to `CS(=O)(=O)c1ccc(B(O)O)cc1C(=O)N[C@@H]1C[C@H](C(N)=O)N(C(=O)c2cc(B(O)O)ccc2S(C)(=O)=O)C1` [Example 1, (3-((2R,4R)-4-(5-borono-2-(methylsulfonyl)benzamido)-2-carbamoylpyrrolidine-1-carbonyl)-4-(methylsulfonyl)phenyl)boronic acid], the equilibrium dissociation constant (Kd) in experiment [1] turned out to be 38.3 mM; in experiment [2], 1.7 mM; in experiment [3], 25.2 mM.

For `O=C(O)CNC(=O)[C@@H]1C[C@H](NC(=O)c2ccc3c(c2)B(O)OC3)CN1C(=O)c1ccc2c(c1)B(O)OC2` [Example 2, ((2S,4S)-1-(1-hydroxy-1,3-dihydrobenzo[c][1,2]oxaborole-6-carbonyl)-4-(1-hydroxy-1,3-dihydrobenzo[c][1,2]oxaborole-6-carboxamido)pyrrolidine-2-carbonyl)glycine], the Kd turned out to be 58 mM in experiment [1], 2 mM in experiment [2] and 3.7 mM in experiment [3].

Take `O=C(O)CNC(=O)[C@@H]1C[C@H](NC(=O)c2ccc3c(c2)B(O)OC3)CN1C(=O)c1cc(B(O)O)ccc1[N+](=O)[O-]` [Example 3, ((2S,4S)-1-(5-borono-2-nitrobenzoyl)-4-(1-hydroxy-1,3-dihydrobenzo[c][1,2]oxaborole-6-carboxamido)pyrrolidine-2-carbonyl)glycine]: the values for the Kd in experiment [1], in experiment [2] and in experiment [3] were 48 mM, 1.9 mM and 14 mM, respectively.

Regarding `NC(=O)[C@H](CNC(=O)c1ccc2c(c1)B(O)OC2)NC(=O)c1cc(B(O)O)cc([N+](=O)[O-])c1` [Example 4, (S)-(3-((1-amino-3-(1-hydroxy-1,3-dihydrobenzo[c][1,2]oxaborole-6-carboxamido)-1-oxopropan-2-yl)carbamoyl)-5-nitrophenyl)boronic acid], the results for the Kd in experiment [2] and in experiment [3] were 5.6 mM and 13 mM, respectively.

`NC(=O)[C@H](CNC(=O)c1cc(B(O)O)ccc1[N+](=O)[O-])NC(=O)c1cc(B(O)O)ccc1[N+](=O)[O-]` [Example 5, (S)-(3-((1-amino-3-(5-borono-2-nitrobenzamido)-1-oxopropan-2-yl)carbamoyl)-4-nitrophenyl)boronic acid]: the Kd in experiment [2] is 11 mM; in experiment [3] it was 29.4 mM.

As to `NC(=O)[C@H](CNC(=O)c1cc2c(c(C(F)(F)F)c1)COB2O)NC(=O)c1cc(B(O)O)cc([N+](=O)[O-])c1` [Example 6, (S)-(3-((1-amino-3-(1-hydroxy-4-(trifluoromethyl)-1,3-dihydrobenzo[c][1,2]oxaborole-6-carboxamido)-1-oxopropan-2-yl)carbamoyl)-5-nitrophenyl)boronic acid], the Kd in experiment [1] amounted to 74.1 mM; in experiment [2] it was 4.6 mM; in experiment [3] it was 3.4 mM.

As for `NC(=O)[C@H](CNC(=O)c1ccc2c(c1)B(O)OC2)NC(=O)c1cc(B(O)O)ccc1[N+](=O)[O-]` [Example 7, (S)-(3-((1-amino-3-(J-hydroxy-1,3-dihydrobenzo[c][1,2]oxaborole-6-carboxamido)-1-oxopropan-2-yl)carbamoyl)-4-nitrophenyl)boronic acid], the Kd in experiment [1] is 39.5 mM; in experiment [2], 1.2 mM; in experiment [3] it was 4.4 mM. In experiment [1] (setting [4]), the “increase in affinity to lactate” value is reported as roughly 7 fold. Besides, the “increase in affinity to fructose” value in experiment [2] (setting [4]) is roughly 7 fold. For the same compound, in experiment [3] (setting [4]), the “increase in affinity to glucose” value is on record as roughly 7 fold.

Take `NC(=O)[C@H](CNC(=O)c1sccc1B(O)O)NC(=O)c1sccc1B(O)O` [Example 8, (S)-(2-((1-amino-3-(3-boronothiophene-2-carboxamido)-1-oxopropan-2-yl)carbamoyl)thiophen-3-yl)boronic acid]: the results for the Kd in experiment [2] and in experiment [3] were 2.2 mM and 32 mM, respectively.

Take `O=C(O)CN(CCCNC(=O)c1cc(B(O)O)cc([N+](=O)[O-])c1)C(=O)c1cc(B(O)O)cc([N+](=O)[O-])c1` [Example 9, N-(3-(3-borono-5-nitrobenzamido)propyl)-N-(3-borono-5-nitrobenzoyl)glycine]: the equilibrium dissociation constant (Kd) in experiment [2] is 10.6 mM; in experiment [3] it was 6.5 mM.

Regarding `O=C(O)CN(CCCCNC(=O)c1cc(B(O)O)cc([N+](=O)[O-])c1)C(=O)c1cc(B(O)O)cc([N+](=O)[O-])c1` [Example 10, N-(4-(3-borono-5-nitrobenzamido)butyl)-N-(3-borono-5-nitrobenzoyl)glycine], the Kd in experiment [2] is 11.5 mM; in experiment [3] it was 99.8 mM.

For the compound `O=C(O)CN(CCCCCNC(=O)c1cc(B(O)O)cc([N+](=O)[O-])c1)C(=O)c1cc(B(O)O)cc([N+](=O)[O-])c1` [Example 11, N-(5-(3-borono-5-nitrobenzamido)pentyl)-N-(3-borono-5-nitrobenzoyl)glycine], in experiment [2], the affinity, expressed as Kd, was 24.7 mM.

On to `O=C(O)CN(Cc1ccc(CNC(=O)c2cc(B(O)O)cc([N+](=O)[O-])c2)cc1)C(=O)c1cc(B(O)O)cc([N+](=O)[O-])c1` [Example 12, N-(4-((3-borono-5-nitrobenzamido)methyl)benzyl)-N-(3-borono-5-nitrobenzoyl)glycine], for which the equilibrium dissociation constant (Kd) in experiment [2] came out at 12.1 mM.

The compound `O=C(O)CN(Cc1cccc(CNC(=O)c2cc(B(O)O)cc([N+](=O)[O-])c2)c1)C(=O)c1cc(B(O)O)cc([N+](=O)[O-])c1` [Example 13, N-(3-((3-borono-5-nitrobenzamido)methyl)benzyl)-N-(3-borono-5-nitrobenzoyl)glycine] came in with a Kd in experiment [2] of 17.8 mM.

In the case of `NC(=O)CN(C(=O)c1ccc2c(c1)B(O)OC2)[C@@H]1CCCC[C@H]1NC(=O)c1ccc2c(c1)B(O)OC2` [Example 14, N-(2-amino-2-oxoethyl)-1-hydroxy-N-((1R,2R)-2-(1-hydroxy-1,3-dihydrobenzo[c][1,2]oxaborole-6-carboxamido)cyclohexyl)-1,3-dihydrobenzo[c][1,2]oxaborole-6-carboxamide], the figures for the Kd in experiment [1], in experiment [2] and in experiment [3] were 59.8 mM, 5.88 mM and 1.64 mM, respectively.

Regarding `O=C(O)CN(CCCNC(=O)c1ccc(F)c(B(O)O)c1)C(=O)c1ccc(F)c(B(O)O)c1` [Example 15, N-(3-(3-borono-4-fluorobenzamido)propyl)-N-(3-borono-4-fluorobenzoyl)glycine], the figures for the Kd in experiment [1], in experiment [2] and in experiment [3] were 51.6 mM, 4.8 mM and 59 mM, respectively.

For `O=C(O)CN(Cc1cccc(CNC(=O)c2ccc(F)c(B(O)O)c2)c1)C(=O)c1ccc(F)c(B(O)O)c1` [Example 17, N-(3-((3-borono-4-fluorobenzamido)methyl)benzyl)-N-(3-borono-4-fluorobenzoyl)glycine], the values for the Kd in experiment [1], in experiment [2] and in experiment [3] were 53.5 mM, 6.5 mM and 88.6 mM, respectively.

For `O=C(O)CN(C(=O)c1ccc(F)c(B(O)O)c1)[C@H]1CCCC[C@H]1NC(=O)c1ccc(F)c(B(O)O)c1` [Example 18, N-((1S,2R)-2-(3-borono-4-fluorobenzamido)cyclohexyl)-N-(3-borono-4-fluorobenzoyl)glycine], the Kd in experiment [1] turned out to be 67.5 mM; in experiment [2], 6.04 mM; in experiment [3] it was 95.4 mM.

`O=C(O)CN(CCCNC(=O)c1ccc(B(O)O)c(F)c1)C(=O)c1ccc(B(O)O)c(F)c1` [Example 19, N-(3-(4-borono-3-fluorobenzamido)propyl)-N-(4-borono-3-fluorobenzoyl)glycine]: the results for the equilibrium dissociation constant (Kd) in experiment [1], in experiment [2] and in experiment [3] were 31 mM, 2.87 mM and 43 mM, respectively.

As to `O=C(O)CN(CCCCCNC(=O)c1ccc(B(O)O)c(F)c1)C(=O)c1ccc(B(O)O)c(F)c1` [Example 20, N-(S-(4-borono-3-fluorobenzamido)pentyl)-N-(4-borono-3-fluorobenzoyl)glycine], the figures for the Kd in experiment [1], in experiment [2] and in experiment [3] were 70.3 mM, 5.86 mM and 30.4 mM, respectively.

`O=C(O)CN(Cc1ccc(CNC(=O)c2ccc(B(O)O)c(F)c2)cc1)C(=O)c1ccc(B(O)O)c(F)c1` [Example 21, N-(4-((4-borono-3-fluorobenzamido)methyl)benzyl)-N-(4-borono-3-fluorobenzoyl)glycine]: in experiment [2], binding was put at a Kd of 13.5 mM.

Take `O=C(O)CN(Cc1cccc(CNC(=O)c2ccc(B(O)O)c(F)c2)c1)C(=O)c1ccc(B(O)O)c(F)c1` [Example 22, N-(3-((4-borono-3-fluorobenzamido)methyl)benzyl)-N-(4-borono-3-fluorobenzoyl)glycine]: the Kd was found to be 97.3 mM in experiment [1], 9.52 mM in experiment [2] and 16.1 mM in experiment [3].

With `O=C(O)CN(Cc1cccc(CNC(=O)c2cc(Br)cc(B(O)O)c2)c1)C(=O)c1cc(Br)cc(B(O)O)c1` [Example 24, N-(3-((3-borono-5-bromobenzamido)methyl)benzyl)-N-(3-borono-5-bromobenzoyl)glycine], the Kd was 9.36 mM in experiment [2] and 93.7 mM in experiment [3].

Usually Kd stands for the free concentration of one partner at which half of the binding sites on the other are occupied at equilibrium, for simple one-to-one binding. Low readings indicate tighter binding, high ones weaker binding.
